# From ChEMBL document CHEMBL3217597, “OH radical production stimulated by (RW)4D, a synthetic antimicrobial agent and indolicidin” (Medchemcomm, 2012)
# Active and inactive are the calls of the source. The calls are words filed in the database; no cut-off is given here. Where a SMILES comes first, the peptide text is derived from it. Side-chain parts run from the residue outwards. [ ]: non-standard residue; d: D form. The star is where a group is joined. Lys(α,ε-(ArgTrp)2) = N=C(N)NCCC[C@H](N)C(=O)N[C@@H](Cc1c[nH]c2ccccc12)C(=O)NCCCC[C@H](NC(=O)[C@H](Cc1c[nH]c2ccccc12)NC(=O)[C@@H](N)CCCNC(=N)N)C(=O)*; βAla = NCCC(=O)O
# What was measured:
# Escherichia coli [1] = experiment: Induction of hydroxyl radical production in Escherichia coli at 5 to 15 ug/mL after 2 hrs by measuring increase in hydroxyphenyl fluorescein emission by flow cytometry analysis; format: functional, organism-based
# Escherichia coli [2] = experiment: Reduction of hydroxyl radical production in […] knockout Escherichia coli at 5 to 15 ug/ml after 1 hr by flow cytometry analysis; format: functional, organism-based
# Escherichia coli [3] = experiment: Reduction of hydroxyl radical production in deltaicdA knockout Escherichia coli at 5 to 15 ug/ml after 1 hr by flow cytometry analysis; format: functional, organism-based
# Escherichia coli [4] = experiment: Induction of hydroxyl radical production in deltaiscS knockout Escherichia coli at 5 to 15 ug/mL after 1 hr by measuring increase in hydroxyphenyl fluorescein emission by flow cytometry analysis; format: functional, organism-based
# Escherichia coli [5] = experiment: Induction of hydroxyl radical production in Escherichia coli at 5 to 15 ug/mL after 1 hr by measuring increase in hydroxyphenyl fluorescein emission by flow cytometry analysis in presence of thiourea; format: functional, organism-based
# Escherichia coli [6] = experiment: Reduction of hydroxyl radical production in deltamdh knockout Escherichia coli at 5 to 15 ug/ml after 1 hr by flow cytometry analysis; format: functional, organism-based
# Escherichia coli [7] = experiment: Induction of hydroxyl radical production in Escherichia coli at 5 to 15 ug/mL after 1 hr by measuring increase in hydroxyphenyl fluorescein emission by flow cytometry analysis; format: functional, organism-based
# Escherichia coli [8] = experiment: Reduction of hydroxyl radical production in deltaacnB knockout Escherichia coli at 5 to 15 ug/ml after 1 hr by flow cytometry analysis; format: functional, organism-based
# Escherichia coli [9] = experiment: Induction of hydroxyl radical production in Escherichia coli at 9 to 45 ug/mL after 2 hrs by measuring increase in hydroxyphenyl fluorescein emission by flow cytometry analysis; format: functional, organism-based
# Escherichia coli [10] = experiment: Induction of hydroxyl radical production in deltaiscS knockout Escherichia coli at 9 to 45 ug/mL after 1 hr by measuring increase in hydroxyphenyl fluorescein emission by flow cytometry analysis; format: functional, organism-based
# Escherichia coli [11] = experiment: Antibacterial activity against deltamdh knockout Escherichia coli; format: functional, organism-based
# Escherichia coli [12] = experiment: Antibacterial activity against […] knockout Escherichia coli; format: functional, organism-based
# Escherichia coli [13] = experiment: Induction of hydroxyl radical production in Escherichia coli at 9 to 45 ug/mL after 1 hr by measuring increase in hydroxyphenyl fluorescein emission by flow cytometry analysis; format: functional, organism-based
# Escherichia coli [14] = experiment: Reduction of hydroxyl radical production in […] knockout Escherichia coli at 9 to 45 ug/mL after 1 hr by flow cytometry analysis; format: functional, organism-based
# Escherichia coli [15] = experiment: Antibacterial activity against deltaacnB knockout Escherichia coli; format: functional, organism-based
# Escherichia coli [16] = experiment: Ratio of IC50 for deltaicdA knockout Escherichia coli to IC50 for Escherichia coli […]; format: functional
# Escherichia coli [17] = experiment: Antibacterial activity against Escherichia coli […]; format: functional, organism-based
# Escherichia coli [18] = experiment: Ratio of IC50 for deltaiscS knockout Escherichia coli to IC50 for Escherichia coli […]; format: functional
# Escherichia coli [19] = experiment: Reduction of hydroxyl radical production in deltaicdA knockout Escherichia coli at 9 to 45 ug/mL after 1 hr by flow cytometry analysis; format: functional, organism-based
# Escherichia coli [20] = experiment: Reduction of hydroxyl radical production in deltaacnB knockout Escherichia coli at 9 ug/ml after 1 hr by flow cytometry analysis; format: functional, organism-based
# Escherichia coli [21] = experiment: Antibacterial activity against deltaicdA knockout Escherichia coli; format: functional, organism-based
# Escherichia coli [22] = experiment: Reduction of hydroxyl radical production in deltamdh knockout Escherichia coli at 9 to 45 ug/mL after 1 hr by flow cytometry analysis; format: functional, organism-based
# Escherichia coli [23] = experiment: Induction of hydroxyl radical production in Escherichia coli at 9 to 45 ug/mL after 1 hr by measuring increase in hydroxyphenyl fluorescein emission by flow cytometry analysis in presence of thiourea; format: functional, organism-based
# Escherichia coli [24] = experiment: Ratio of IC50 for deltaacnB knockout Escherichia coli to IC50 for Escherichia coli […]; format: functional
# Escherichia coli [25] = experiment: Antibacterial activity against deltaiscS knockout Escherichia coli; format: functional, organism-based
# Escherichia coli [26] = experiment: Reduction of hydroxyl radical production in […] knockout Escherichia coli at 25 to 250 ng/ml after 1 hr by flow cytometry analysis; format: functional, organism-based
# Escherichia coli [27] = experiment: Induction of hydroxyl radical production in Escherichia coli at 25 to 250 ng/mL after 1 hr by measuring increase in hydroxyphenyl fluorescein emission by flow cytometry analysis in presence of thiourea; format: functional, organism-based
# Escherichia coli [28] = experiment: Induction of hydroxyl radical production in Escherichia coli at 25 to 250 ng/mL after 1 hr by measuring increase in hydroxyphenyl fluorescein emission by flow cytometry analysis; format: functional, organism-based
# Escherichia coli [29] = experiment: Induction of hydroxyl radical production in deltaiscS knockout Escherichia coli at 25 to 250 ng/mL after 1 hr by measuring increase in hydroxyphenyl fluorescein emission by flow cytometry analysis; format: functional, organism-based
# Escherichia coli [30] = experiment: Reduction of hydroxyl radical production in deltaacnB knockout Escherichia coli at 25 to 250 ng/ml after 1 hr by flow cytometry analysis; format: functional, organism-based
# Escherichia coli [31] = experiment: Reduction of hydroxyl radical production in deltamdh knockout Escherichia coli at 25 to 250 ng/ml after 1 hr by flow cytometry analysis; format: functional, organism-based
# Escherichia coli [32] = experiment: Induction of hydroxyl radical production in Escherichia coli at 25 to 250 ng/mL after 2 hrs by measuring increase in hydroxyphenyl fluorescein emission by flow cytometry analysis; format: functional, organism-based
# Escherichia coli [33] = experiment: Reduction of hydroxyl radical production in deltaicdA knockout Escherichia coli at 25 to 250 ng/ml after 1 hr by flow cytometry analysis; format: functional, organism-based
# Escherichia coli [34] = experiment: Induction of hydroxyl radical production in deltaiscS knockout Escherichia coli at 5 to 25 ug/mL after 1 hr by measuring increase in hydroxyphenyl fluorescein emission by flow cytometry analysis; format: functional, organism-based
# Escherichia coli [35] = experiment: Reduction of hydroxyl radical production in deltaicdA knockout Escherichia coli at 5 to 25 ug/ml after 1 hr by flow cytometry analysis; format: functional, organism-based
# Escherichia coli [36] = experiment: Reduction of hydroxyl radical production in deltamdh knockout Escherichia coli at 5 to 25 ug/ml after 1 hr by flow cytometry analysis; format: functional, organism-based
# Escherichia coli [37] = experiment: Reduction of hydroxyl radical production in deltaacnB knockout Escherichia coli at 5 to 25 ug/ml after 1 hr by flow cytometry analysis; format: functional, organism-based
# Escherichia coli [38] = experiment: Induction of hydroxyl radical production in Escherichia coli at 5 to 25 ug/mL after 1 hr by measuring increase in hydroxyphenyl fluorescein emission by flow cytometry analysis in presence of thiourea; format: functional, organism-based
# Escherichia coli [39] = experiment: Induction of hydroxyl radical production in Escherichia coli at 5 to 25 ug/mL after 1 hr by measuring increase in hydroxyphenyl fluorescein emission by flow cytometry analysis; format: functional, organism-based
# Escherichia coli [40] = experiment: Reduction of hydroxyl radical production in […] knockout Escherichia coli at 5 to 25 ug/ml after 1 hr by flow cytometry analysis; format: functional, organism-based
# Escherichia coli [41] = experiment: Induction of hydroxyl radical production in Escherichia coli at 5 to 25 ug/mL after 2 hrs by measuring increase in hydroxyphenyl fluorescein emission by flow cytometry analysis; format: functional, organism-based
compound,measurement,setting,value
CC1(C)S[C@@H]2[C@H](NC(=O)[C@H](N)c3ccccc3)C(=O)N2[C@H]1C(=O)O,Activity,Escherichia coli [1],Active
same,Activity,Escherichia coli [2],inactive
same,Activity,Escherichia coli [3],inactive
same,Activity,Escherichia coli [4],inactive
same,Activity,Escherichia coli [5],inactive
same,Activity,Escherichia coli [6],inactive
same,Activity,Escherichia coli [7],Active
same,Activity,Escherichia coli [8],Active
"N=C(N)NCCC[C@H](N)C(=O)N[C@@H](Cc1c[nH]c2ccccc12)C(=O)NCCCC[C@H](NC(=O)[C@H](Cc1c[nH]c2ccccc12)NC(=O)[C@@H](N)CCCNC(=N)N)C(=O)NCCCC[C@H](NC(=O)[C@H](CCCCNC(=O)[C@H](Cc1c[nH]c2ccccc12)NC(=O)[C@@H](N)CCCNC(=N)N)NC(=O)[C@H](Cc1c[nH]c2ccccc12)NC(=O)[C@@H](N)CCCNC(=N)N)C(=O)NCCC(N)=O (H-RWK([Trp-Arg])K(Lys(α,ε-(ArgTrp)2))[βAla]-NH2)",Activity,Escherichia coli [9],Active
same,Activity,Escherichia coli [10],inactive
same,IC50,Escherichia coli [11],7.8 µg/mL
same,IC50,Escherichia coli [12],8.3 µg/mL
same,Activity,Escherichia coli [13],Active
same,Activity,Escherichia coli [14],inactive
same,IC50,Escherichia coli [15],9.7 µg/mL
same,Ratio IC50,Escherichia coli [16],1.5
same,IC50,Escherichia coli [17],6.5 µg/mL
same,Ratio IC50,Escherichia coli [18],1.5
same,Activity,Escherichia coli [19],inactive
same,Activity,Escherichia coli [20],Active
same,IC50,Escherichia coli [21],9.4 µg/mL
same,Activity,Escherichia coli [22],inactive
same,Activity,Escherichia coli [23],inactive
same,Ratio IC50,Escherichia coli [24],1.5
same,IC50,Escherichia coli [25],9.9 µg/mL
CCn1cc(C(=O)O)c(=O)c2cc(F)c(N3CCNCC3)cc21,Activity,Escherichia coli [26],inactive
same,Activity,Escherichia coli [27],inactive
same,Activity,Escherichia coli [28],Active
same,Activity,Escherichia coli [29],inactive
same,Activity,Escherichia coli [30],Active
same,Activity,Escherichia coli [31],inactive
same,Activity,Escherichia coli [32],Active
same,Activity,Escherichia coli [33],inactive
NC[C@H]1O[C@H](O[C@H]2[C@H](O)[C@@H](O[C@H]3O[C@H](CO)[C@@H](O)[C@H](N)[C@H]3O)[C@H](N)C[C@@H]2N)[C@H](O)[C@@H](O)[C@@H]1O,Activity,Escherichia coli [34],inactive
same,Activity,Escherichia coli [35],inactive
same,Activity,Escherichia coli [36],inactive
same,Activity,Escherichia coli [37],Active
same,Activity,Escherichia coli [38],inactive
same,Activity,Escherichia coli [39],Active
same,Activity,Escherichia coli [40],inactive
same,Activity,Escherichia coli [41],Active
